# Reference: ChEMBL document CHEMBL4477248, “Blinded predictions of binding modes and energies of HSP90-α ligands for the 2015 D3R grand challenge” (Bioorg Med Chem, 2016)
# The source made the active and inactive calls. The rule behind the calls is not given here.
# Biological target: Heat shock protein HSP 90-alpha (Homo sapiens, UniProt P07900)
# Test: Inhibition of HSP90alpha (unknown origin)
inhibition,IC50,SMILES
inactive,–,CC(=O)Oc1ccc([N+](=O)[O-])c2ccccc12
Active,–,CC(=O)Oc1ccc2c(=O)c(Cc3ccccc3)c(C)oc2c1OC(C)=O
–,> 1 µM,COC(=O)c1cc(C(=O)c2ccc(OC)cc2)cc(C(=O)OC)c1OC
inactive,–,CCOC(=O)CC1(C)Oc2ccccc2O1
Active,–,O=C1c2ccccc2C(=O)c2c1ccc1nonc21
–,0.005 µM,O=c1[nH]c2cc(CNS(=O)(=O)c3cccnc3)ccc2n1-c1cc(Cl)c(O)cc1O
Active,–,Cn1c2c([n+](C)c1CCl)C(=O)c1ccccc1C2=O
–,> 1 µM,O=C1c2ccccc2-c2ccccc21
–,> 1 µM,COc1cc(F)c(Cl)cc1C(=O)c1ccc(OCc2ccccc2)cc1
–,> 1 µM,CCn1c(=O)n(-c2ccccc2OC)c2ccccc21
